Assay results: US20150089682A1, “ALS Inhibitor Herbicide Tolerant B. Napus Mutants” (priority 2012, published 2015)

Columns and labels:
[1] = system: spring oilseed rape homozygous for HETO108 and HETO121; test: Herbicide tolerance in the field, visible phytotoxicity; type: in vivo, Brassica napus; conditions: for pest or weed control at 30 g/ha: AI dose rate 30 gai/ha
Source text: (§1) Seeds of spring oilseed rape homozygous for HETO108 and HETO121 were sown in a field according to typical practical agricultural methods. The registered spring oilseed rape variety ABILITY served as a comparison. All plants were cultivated up to BBCH stage 14 (four true leaves of the oilseed rape plants). Afterwards, the herbicides mentioned in table 2 have been applied to the oilseed rape plants by using specific spray equipment for small plot applications. The water amount used was 200 L/ha.

[2] = system: spring oilseed rape variety ABILITY; test: as above; type: in vivo, Brassica napus; conditions: for pest or weed control at 30 g/ha: AI dose rate 30 gai/ha
Source text: as §1

[3] = target: T1, Arabidopsis thaliana P197S-mutant ALS (Arabidopsis thaliana, UniProt P17597, E575Q/P197S); test: biochemical; conditions: for Resistance Factor P197S: relative to WT, from measured pI50; for IC50: measured, crude extract of E. coli expressed enzyme, read-out: pI50 P197S (converted)
T1 construct: vector-encoded N-terminal fusion of pET-32a(+) (Trx/His/S tag by own knowledge); made in house; host or cells: Escherichia coli AD494
Description: (§2) Bacteria were grown at 37° C. in LB-medium containing 100 mg/1 carbenicillin and 25 mg/1 canamycin, induced with 1 mM isopropyl-β-D-thiogalactopyranoside at an OD600 of 0.6, cultivated for 16 hours at 18° C. and harvested by centrifugation. Bacterial pellets were resusupended in 100 mM sodium phosphate buffer pH 7.0 containing 0.1 mM thiamine-pyrophosphate, 1 mM MgCl2, and 1 μM FAD at a concentration of 1 gram wet weight per 25 ml of buffer and disrupted by sonification. The crude protein extract obtained after centrifugation was used for ALS activity measurements.
(§3) Assays were initiated by adding enzyme and terminated after 75 min incubation at 30° C. by the addition to 40 μl 0.5 M H2SO4. […] Reaction velocities were tiffed to the Michalis-Menten equation with the XLFit curve fitting program.

[4] = target: T2, Arabidopsis thaliana W574L-mutant ALS (Arabidopsis thaliana, UniProt P17597, E575Q/W574L); test: biochemical; conditions: for Resistance Factor W574L: relative to WT, from measured pI50; for IC50: measured, crude extract of E. coli expressed enzyme, read-out: pI50 W574L (converted)
T2 construct: vector-encoded N-terminal fusion of pET-32a(+) (Trx/His/S tag by own knowledge); made in house; host or cells: Escherichia coli AD494
Description: as §2, §3

[5] = target: T3, Arabidopsis thaliana S653N-mutant ALS (Arabidopsis thaliana, UniProt P17597, E575Q/S653N); test: biochemical; conditions: for Resistance Factor S653N: relative to WT, from measured pI50; for IC50: measured, crude extract of E. coli expressed enzyme, read-out: pI50 S653N (converted)
T3 construct: vector-encoded N-terminal fusion of pET-32a(+) (Trx/His/S tag by own knowledge); made in house; host or cells: Escherichia coli AD494
Description: as §2, §3

[6] = target: T4, mixture of P197S and W574L ALS enzymes (Arabidopsis thaliana, UniProt P17597); type: biochemical; conditions: for Resistance Factor P197S & W574L: relative to WT, calculated; for pI50 P197S & W574L: calculated for a mixture of equal activities of the two enzymes, pI50=3.0 used where measured <4
T4 construct: crude E. coli extract was used
Description: as §3
(§4) To characterize the response of a mixture of two different ALS enzymes to a given ALS inhibitor the following assumptions were made: • a inhibition is competitive and reversible • b. in the absence of inhibitor, equal activities of the ALS (mutant) enzymes 1 and 2 are present
(§5) Using experimentally determined pI50-values for various ALS-inhibiting herbicides, enzyme activities at different inhibitor concentrations were calculated (see Theory) for each ALS enzyme. Total ALS activity at any given inhibitor concentration is the sum of the activity of (mutant) enzyme 1 and (mutant) enzyme 2. If the experimentally determined pI50-value was <4, pI50=3.0 was used for the calculations. If the calculated pI50-value was 3.0, the pI50 was redefined as <4.

[7] = target: T5, mixture of S653N and W574L ALS enzymes (Arabidopsis thaliana, UniProt P17597); type: biochemical; conditions: for Resistance Factor S653N & W574L: relative to WT, calculated; for pI50 S653N & W574L: calculated for a mixture of equal activities of the two enzymes, pI50=3.0 used where measured <4
T5 construct: crude E. coli extract was used
Description: as §3, §4, §5

[8] = target: T6, Arabidopsis thaliana wild-type ALS (Arabidopsis thaliana, UniProt P17597, E575Q); test: biochemical; conditions: measured; crude extract of E. coli expressed enzyme; read-out: pI50 WT (converted)
T6 construct: vector-encoded N-terminal fusion of pET-32a(+) (Trx/His/S tag by own knowledge); made in house; host or cells: Escherichia coli AD494
Description: as §2, §3

[9] = Brassica napus, topical, 432 h, HETO108-HETO121, field, 18 days after application, 0%=no phytotoxic effects, 100%=all plants killed, read-out: % phytotox
[10] = Brassica napus, topical, 432 h, ABILITY, field, 18 days after application, 0%=no phytotoxic effects, 100%=all plants killed, read-out: % phytotox
[11] = Brassica napus, topical, 432 h, read-out: % phytotox

COC(=O)c1ccccc1S(=O)(=O)NC(=O)N(C)c1nc(C)nc(OC)n1 [Tribenuron-methyl, tribenuron-methyl]
pest or weed control at 20 g/ha ([1]; Brassica napus, topical, 432 h, HETO108-HETO121, AI dose rate 20 gai/ha, field, 18 days after application, 0%=no phytotoxic effects, 100%=all plants killed, read-out: % phytotox): 5%
pest or weed control at 20 g/ha ([2]; Brassica napus, topical, 432 h, ABILITY, AI dose rate 20 gai/ha, field, 18 days after application, 0%=no phytotoxic effects, 100%=all plants killed, read-out: % phytotox): 99%

COC(=O)c1ccccc1S(=O)(=O)NC(=O)Nc1nc(C)nc(OC)n1 [Metsulfuron-methyl, metsulfuron-methyl]
% phytotox ([1]; HETO108-HETO121, AI dose rate 8 gai/ha, field, 18 days after application, 0%=no phytotoxic effects, 100%=all plants killed): 73%
% phytotox ([2]; ABILITY, AI dose rate 8 gai/ha, field, 18 days after application, 0%=no phytotoxic effects, 100%=all plants killed): 100%
Resistance Factor P197S [3]: 50
Resistance Factor W574L [4]: 1000
Resistance Factor S653N [5]: 6
Resistance Factor P197S & W574L [6]: 251
Resistance Factor S653N & W574L [7]: 79

COc1cc(OC)n2nc(S(=O)(=O)Nc3c(Cl)ccc(C)c3Cl)nc2n1 [Metosulam, metosulam]
pest or weed control at 30 g/ha [1, 9]: 35%
pest or weed control at 30 g/ha [2, 10]: 100%
IC50 [3]: 1580 nM
Resistance Factor P197S [3]: 631
IC50 [4]: 20000 nM
Resistance Factor W574L [4]: 7943
IC50 [8]: 2.51 nM
IC50 [5]: 6.31 nM
Resistance Factor S653N [5]: 3
pI50 P197S & W574L [6]: 5.2
Resistance Factor P197S & W574L [6]: 2512
pI50 S653N & W574L [7]: 6.4
Resistance Factor S653N & W574L [7]: 158

CCS(=O)(=O)c1cccnc1S(=O)(=O)NC(=O)Nc1nc(OC)cc(OC)n1 [Rimsulfuron, rimsulfuron]
pest or weed control at 12.5 g/ha ([1]; Brassica napus, topical, 432 h, HETO108-HETO121, AI dose rate 12.5 gai/ha, field, 18 days after application, 0%=no phytotoxic effects, 100%=all plants killed, read-out: % phytotox): 68%
pest or weed control at 12.5 g/ha ([2]; Brassica napus, topical, 432 h, ABILITY, AI dose rate 12.5 gai/ha, field, 18 days after application, 0%=no phytotoxic effects, 100%=all plants killed, read-out: % phytotox): 100%
IC50 [3]: 398 nM
Resistance Factor P197S [3]: 13
IC50 [4]: 10000 nM
Resistance Factor W574L [4]: 316
IC50 [8]: 31.6 nM
IC50 [5]: 20 nM
Resistance Factor S653N [5]: 1
pI50 P197S & W574L [6]: 5.7
Resistance Factor P197S & W574L [6]: 63
pI50 S653N & W574L [7]: 6.3
Resistance Factor S653N & W574L [7]: 16

COCc1cnc(C2=NC(C)(C(C)C)C(=O)N2)c(C(=O)O)c1 (centres unmarked) [Imazamox, imazamox]
pest or weed control at 40 g/ha ([1]; Brassica napus, topical, 432 h, HETO108-HETO121, AI dose rate 40 gai/ha, field, 18 days after application, 0%=no phytotoxic effects, 100%=all plants killed, read-out: % phytotox): 19%
pest or weed control at 40 g/ha ([2]; Brassica napus, topical, 432 h, ABILITY, AI dose rate 40 gai/ha, field, 18 days after application, 0%=no phytotoxic effects, 100%=all plants killed, read-out: % phytotox): 99%
IC50 [3]: 5010 nM
Resistance Factor P197S [3]: 1
IC50 [4]: > 100000 nM
Resistance Factor W574L [4]: >25
IC50 [8]: 3980 nM
IC50 [5]: > 100000 nM
Resistance Factor S653N [5]: >25
pI50 P197S & W574L [6]: 4.1
Resistance Factor P197S & W574L [6]: 20
pI50 S653N & W574L [7]: <4
Resistance Factor S653N & W574L [7]: >25

COc1cc(OC)nc(NC(=O)NS(=O)(=O)N(C)S(C)(=O)=O)n1 [Amidosulfuron, amidosulfuron]
pest or weed control at 30 g/ha [1, 9]: 3%
pest or weed control at 30 g/ha [2, 10]: 98%
IC50 [3]: > 100000 nM
Resistance Factor P197S [3]: >501
IC50 [4]: > 100000 nM
Resistance Factor W574L [4]: >501
IC50 [8]: 200 nM
IC50 [5]: 7.94 nM
Resistance Factor S653N [5]: 0
pI50 P197S & W574L [6]: <4
Resistance Factor P197S & W574L [6]: >501
pI50 S653N & W574L [7]: 5.6
Resistance Factor S653N & W574L [7]: 13

COc1cc(OC)nc(NC(=O)NS(=O)(=O)c2ncccc2C(=O)N(C)C)n1 [Nicosulfuron, nicosulfuron]
pest or weed control at 60 g/ha ([1]; Brassica napus, topical, 432 h, HETO108-HETO121, AI dose rate 60 gai/ha, field, 18 days after application, 0%=no phytotoxic effects, 100%=all plants killed, read-out: % phytotox): 55%
pest or weed control at 60 g/ha ([2]; Brassica napus, topical, 432 h, ABILITY, AI dose rate 60 gai/ha, field, 18 days after application, 0%=no phytotoxic effects, 100%=all plants killed, read-out: % phytotox): 100%
IC50 [3]: 1000 nM
Resistance Factor P197S [3]: 8
IC50 [4]: > 100000 nM
Resistance Factor W574L [4]: >794
IC50 [8]: 126 nM
IC50 [5]: 2510 nM
Resistance Factor S653N [5]: 20
pI50 P197S & W574L [6]: 4.5
Resistance Factor P197S & W574L [6]: 251
pI50 S653N & W574L [7]: 4.3
Resistance Factor S653N & W574L [7]: 398

CCOc1ccccc1OS(=O)(=O)NC(=O)Nc1nc(OC)cc(OC)n1 [Ethoxysulfuron, ethoxysulfuron]
pest or weed control at 180 g/ha ([1]; Brassica napus, topical, 432 h, HETO108-HETO121, AI dose rate 180 gai/ha, field, 18 days after application, 0%=no phytotoxic effects, 100%=all plants killed, read-out: % phytotox): 70%
pest or weed control at 180 g/ha ([2]; Brassica napus, topical, 432 h, ABILITY, AI dose rate 180 gai/ha, field, 18 days after application, 0%=no phytotoxic effects, 100%=all plants killed, read-out: % phytotox): 100%

CCCOc1nn(C(=O)[N-]S(=O)(=O)c2ccccc2C(=O)OC)c(=O)n1C.[Na+] [Propoxycarbazone, propoxycarbazone-sodium]
% phytotox ([1]; HETO108-HETO121, AI dose rate 70 gai/ha, field, 18 days after application, 0%=no phytotoxic effects, 100%=all plants killed): 65%
% phytotox ([2]; ABILITY, AI dose rate 70 gai/ha, field, 18 days after application, 0%=no phytotoxic effects, 100%=all plants killed): 100%
Resistance Factor P197S [3]: 158
Resistance Factor W574L [4]: 316
Resistance Factor S653N [5]: 25
Resistance Factor P197S & W574L [6]: 200
Resistance Factor S653N & W574L [7]: 100

iodosulfuron-methyl-sodium [Iodosulfuron-methy-sodium]
% phytotox ([1]; HETO108-HETO121, AI dose rate 7 gai/ha, field, 18 days after application, 0%=no phytotoxic effects, 100%=all plants killed): 43%
% phytotox ([2]; ABILITY, AI dose rate 7 gai/ha, field, 18 days after application, 0%=no phytotoxic effects, 100%=all plants killed): 100%
Resistance Factor P197S [3]: 158
Resistance Factor W574L [4]: 631
Resistance Factor S653N [5]: 10
Resistance Factor S653N & W574L [7]: 79

COC(=O)c1ccc(CNS(C)(=O)=O)cc1S(=O)(=O)NC(=O)Nc1nc(OC)cc(OC)n1 [Mesosulfaron-methyl, mesosulfuron-methyl]
% phytotox ([1]; HETO108-HETO121, AI dose rate 15 gai/ha, field, 18 days after application, 0%=no phytotoxic effects, 100%=all plants killed): 30%
% phytotox ([2]; ABILITY, AI dose rate 15 gai/ha, field, 18 days after application, 0%=no phytotoxic effects, 100%=all plants killed): 99%
Resistance Factor P197S [3]: 79
Resistance Factor W574L [4]: 31623
Resistance Factor S653N [5]: 16
Resistance Factor P197S & W574L [6]: 794
Resistance Factor S653N & W574L [7]: 200

COC(=O)c1ccc(C(F)(F)F)nc1S(=O)(=O)NC(=O)Nc1nc(OC)cc(OC)n1 [Flupyrsulfuron-methyl, flupyrsulfuron-methyl-sodium]
pest or weed control at 10 g/ha [1, 11]: 35%
pest or weed control at 10 g/ha [2, 11]: 100%
